Assay results as given in patent publication US9523100B2, “Pesticidal compositions and related methods” (DOW AGROSCIENCES LLC, priority 2013, dated 2016).
Like-named read-outs stand apart in the source and are kept apart here.

How the values were obtained:
[1] = system: Green Peach Aphid (GPA) (Myzus persicae) (MYZUPE); assay: Bioassay for Green Peach Aphid (GPA), foliar spray on cabbage seedlings; type: in vivo; settings: 72 h, read-out: GPA 200 ppm, % Control (or Mortality) rating
Source text: Bioassay for Green Peach Aphid (GPA) (Myzus persicae) (MYZUPE)
The green peach aphid (Myzus persicae) is the most significant aphid pest of peach trees, causing decreased growth, shriveling of the leaves, and the death of various tissues. It is also hazardous because it acts as a vector for the transport of plant viruses, such as potato virus Y and potato leafroll virus to members of the nightshade/potato family Solanaceae, and various mosaic viruses to many other food crops. GPA attacks such plants as broccoli, burdock, cabbage, carrot, cauliflower, daikon, eggplant, green beans, lettuce, macadamia, papaya, peppers, sweet potatoes, tomatoes, watercress, and zucchini, among other plants GPA also attacks many ornamental crops such as carnation, chrysanthemum, flowering white cabbage, poinsettia, and roses. GPA has developed resistance to many pesticides.
Cabbage seedlings grown in 3-inch pots, with 2-3 small (3-5 cm) true leaves, were used as test substrate. The seedlings were infested with 20-50 GPA (wingless adult and nymph stages) one day prior to chemical application. Four pots with individual seedlings were used for each treatment. Test compounds (2 mg) were dissolved in 2 mL of acetone/methanol (1:1) solvent, forming stock solutions of 1000 ppm test compound. The stock solutions were diluted 5× with 0.025% Tween 20 in water to obtain the solution at 200 ppm test compound. A hand-held aspirator-type sprayer was used for spraying a solution to both sides of […] leaves until runoff. Reference plants (solvent check) were sprayed with the diluent only containing 20% by volume of acetone/methanol (1:1) solvent. Treated plants were held in a holding room for three days at approximately 25° C. and ambient relative humidity (RH) prior to grading. Evaluation was conducted by counting the number of live aphids per plant under a microscope. Percent control was measured by using Abbott's correction formula (W. S. Abbott, “A Method of Computing the Effectiveness of an Insecticide” J. Econ. Entomol. 18 (1925), pp. 265-267) as follows. Corrected % Control=100*(X−Y)/X
X=No. of live aphids on solvent check plants and
Y=No. of live aphids on treated plants
Biological Data for Green Peach Aphid (GPA) (MYZUPE) and Sweetpotato Whitefly-Crawler (WF) (BEMITA)” (see table section).
(§1) The mortality efficiency of the pesticidal compounds against GPA and WF insects was determined after treatment.

[2] = system: Sweetpotato Whitefly-Crawler (WF) (Bemisia tabaci) (BEMITA); assay: Insecticidal test for Sweetpotato Whitefly-Crawler (WF) in foliar spray assay on cotton plants; type: in vivo; settings: 216 h, read-out: WF 200 ppm, % Control (or Mortality) rating
Source text: Insecticidal Test for Sweetpotato Whitefly-Crawler (WF) (Bemisia tabaci) (BEMITA) in Foliar Spray Assay
The sweetpotato whitefly (Bemisia tabaci) has been reported as a serious pest of cultivated crops world-wide. It has an extremely wide host range attacking more than 500 species of plants from 63 plant families. Weeds often serve as alternate hosts of crop pests. Direct feeding damage is caused by the piercing and sucking sap from the foliage of plants. This feeding causes weakening and early wilting of the plant and reduces the plant growth rate and yield Indirect damage results by the accumulation of honeydew produced by the whiteflies. Honeydew serves as a substrate for the growth of black sooty mold on leaves and fruit reducing photosynthesis and lessens the market value of the plant or yield. […] The sweetpotato whitefly is considered the most common and important whitefly vector of plant viruses worldwide.
Cotton plants (Gossypium hirsutum) grown in 3-inch pots, with 1 small (4-5 cm) true leaves, were used as test substrate. The plants were infested with 200-400 whitefly eggs 4-5 days prior to chemical application. Four pots with individual plants were used for each treatment. Test compounds (2 mg) were dissolved in 1 mL of acetone solvent, forming stock solutions of 2000 ppm test compound. The stock solutions were diluted 10× with 0.025% Tween 20 in water (diluents) to obtain the solution at 200 ppm test compound. A hand-held aspirator-type sprayer was used for spraying a solution to both sides of cotton leaves until runoff. Reference plants (solvent check) were sprayed with the diluent only containing 10% by volume of acetone solvent. Treated plants were held in a holding room for 9 days at approximately 25° C. and ambient relative humidity (RH) prior to grading. Evaluation was conducted by counting the number of live 3-4 nymph stage per plant under a microscope. Percent control was measured by using Abbott's correction formula (W. S. Abbott, “A Method of Computing the Effectiveness of an Insecticide” J. Econ. Entomol. 18 (1925), pp. 265-267) as follows.
Biological Data for Green Peach Aphid (GPA) (MYZUPE) and Sweetpotato Whitefly-Crawler (WF) (BEMITA)” (see table section). Corrected % Control=100*(X−Y)/X
X=No. of live nymphs on solvent check plants and
Y=No. of live nymphs on treated plants
as §1

[3] = 200 ppm foliar spray on cabbage seedlings, graded after three days, Abbott corrected % control
[4] = 200 ppm foliar spray on cotton plants, graded after 9 days, Abbott corrected % control

SMILES | mortality at 200 ppm ([1]; foliar) [%] | mortality at 200 ppm ([2]; foliar) [%] | mortality at 200 ppm [1, 3] [%] | mortality at 200 ppm [2, 4] [%]
CCN(C(=O)CCN(CC(F)F)C(=O)n1ccnc1)c1cn(-c2cccnc2)nc1Cl [Compound F17, N-(3-((3-chloro-1-(pyridin-3-yl)-1H-pyrazol-4-yl)(ethyl)amino)-3-oxopropyl)-N-(2,2-difluoroethyl)-1H-imidazole-1-carboxamide] | 0 to 80 | 80 to 100 |  | 
O=C(CCC(=O)N(CC1CC1)c1cn(-c2cccnc2)nc1Cl)N1CCCCCC1 [Compound F18, 4-(Azepan-1-yl)-N-(3-chloro-1-(pyridin-3-yl)-1H-pyrazol-4-yl)-N-(cyclopropylmethyl)-4-oxobutanamide] |  |  | 0 to 80 | 80 to 100
CCN(C(=O)CCNC(=O)OC(C)(C)C)c1cn(-c2cccnc2)nc1Cl [Compound F19, tert-Butyl (3-((3-chloro-1-(pyridin-3-yl)-1H-pyrazol-4-yl)(ethyl)amino)-3-oxopropyl)carbamate] |  |  | 80 to 100 | 80 to 100
CCN(C(=O)CCC(=O)N1CCCCC1)c1cn(-c2cccnc2)nc1Cl [Compound F21, N-(3-Chloro-1-(pyridin-3-yl)-1H-pyrazol-4-yl)-N-ethyl-4-oxo-4-(piperidin-1-yl)butanamide] |  |  | 0 to 80 | 80 to 100
CN(C(=O)CN1CCCCCC1=O)c1cn(-c2cccnc2)nc1Cl [Compound F22, N-(3-Chloro-1-(pyridin-3-yl)-1H-pyrazol-4-yl)-N-methyl-2-(2-oxoazepan-1-yl)acetamide] |  |  | 0 to 80 | 80 to 100
C#CCN(C(=O)CN(C)C(=O)OC(C)(C)C)c1cn(-c2cccnc2)nc1Cl [Compound F23, tert-Butyl (2-((3-chloro-1-(pyridin-3-yl)-1H-pyrazol-4-yl)(prop-2-yn-1-yl)amino)-2-oxoethyl)(methyl) carbamate] | 0 to 80 | 80 to 100 |  | 
CC(=O)N[C@H]1C=C[C@@H](C(=O)N(C)c2cn(-c3cccnc3)nc2Cl)C1 [Compound F24, (1S,4R)-4-acetamido-N-(3-chloro-1-(pyridin-3-yl)-1H-pyrazol-4-yl)-N-methyl-cyclopent-2-enecarboxamide] |  |  | 80 to 100 | 80 to 100
CN(C)C(=O)CCC(=O)N(C)c1cn(-c2cccnc2)nc1Cl [Compound F25, N1-(3-Chloro-1-(pyridin-3-yl)-1H-pyrazol-4-yl)-N1,N4,N4-trimethyl succinimide] |  |  | 0 to 80 | 80 to 100
CCN(C(=O)C1CN(C(=O)OC(C)(C)C)C1)c1cn(-c2cccnc2)nc1Cl [Compound F26] |  |  | 80 to 100 | 0 to 80
CN(C(=O)CCC(=O)N1CCCCCC1)c1cn(-c2cccnc2)nc1Cl [Compound F27, 4-(Azepan-1-yl)-N-(3-chloro-1-(pyridin-3-yl)-1H-pyrazol-4-yl)-N-methyl-4-oxobutanamide] |  |  | 0 to 80 | 80 to 100
CCN(C(=O)CCNC(=O)CC(C)C(F)(F)F)c1cn(-c2cccnc2)nc1Cl (stereo not shown) [Compound F28, N-(3-((3-Chloro-1-(pyridin-3-yl)-1H-pyrazol-4-yl)(ethyl)amino)-3-oxopropyl)-4,4,4-trifluoro-3-methylbutanamide] |  |  | 80 to 100 | 80 to 100
CC(=O)N1CCC(C(=O)N(C)c2cn(-c3cccnc3)nc2Cl)CC1 [Compound F29, 1-Acetyl-N-(3-chloro-1-(pyridin-3-yl)-1H-pyrazol-4-yl)-N-methylpiperidine-4-carboxamide] |  |  | 80 to 100 | 80 to 100
CCN(C(=O)CCC(=O)N(C)CC1CC1)c1cn(-c2cccnc2)nc1Cl [Compound F30, N1-(3-Chloro-1-(pyridin-3-yl)-1H-pyrazol-4-yl)-N4-(cyclopropylmethyl)-N1-ethyl-N4-methylsuccinamide] |  |  | 80 to 100 | 80 to 100
CN(C(=O)CCN1CCOC1=O)c1cn(-c2cccnc2)nc1Cl [Compound F31, N-(3-chloro-1-(pyridin-3-yl)-1H-pyrazol-4-yl)-N-methyl-3-(2-oxooxazolidin-3-yl)propanamide] |  |  | 80 to 100 | 80 to 100
CCN(C(=O)CC1CN(C)C1=O)c1cn(-c2cccnc2)nc1Cl (stereo not shown) [Compound F32, N-(3-chloro-1-(pyridin-3-yl)-1H-pyrazol-4-yl)-N-ethyl-2-(1-methyl-2-oxoazetidin-3-yl)acetamide] |  |  | 80 to 100 | 80 to 100
CN(C(=O)CCC(=O)N1CCCCC1)c1cn(-c2cccnc2)nc1Cl [Compound F33, N-(3-Chloro-1-(pyridin-3-yl)-1H-pyrazol-4-yl)-N-methyl-4-oxo-4-(piperidin-1-yl)butanamide] |  |  | 0 to 80 | 80 to 100
CCN(C(=O)CCN(CC(F)F)C(=O)C1CC1(F)F)c1cn(-c2cccnc2)nc1Cl (stereo not shown) [Compound F34, N-(3-((3-chloro-1-(pyridin-3-yl)-1H-pyrazol-4-yl)(ethyl)amino)-3-oxopropyl)-N-(2,2-difluoroethyl)-2,2-difluorocyclopropanecarboxamide] |  |  | 0 to 80 | 80 to 100
CCN(C(=O)CCN(CC(F)F)C(=O)C1(C)CC1(F)F)c1cn(-c2cccnc2)nc1Cl (stereo not shown) [Compound F35, N-(3-((3-Chloro-1-(pyridin-3-yl)-1H-pyrazol-4-yl)(ethyl)amino)-3-oxopropyl)-N-(2,2-difluoroethyl)-2,2-difluoro-1-methylcyclopropane carboxamide] |  |  | 80 to 100 | 80 to 100
CCN(C(=O)CC/C(C)=N/Oc1cc(C(F)(F)F)ccn1)c1cn(-c2cccnc2)nc1Cl [Compound F36, (E/Z)-N-(3-Chloro-1-(pyridin-3-yl)-1H-pyrazol-4-yl)-N-ethyl-4-(((4-(trifluoromethyl)pyridin-2-yl)oxy)imino)pentanamide] |  |  | 80 to 100 | 80 to 100
CN(C(=O)CCC(=O)N1CCCC1)c1cn(-c2cccnc2)nc1Cl [Compound F37, N-(3-Chloro-1-(pyridin-3-yl)-1H-pyrazol-4-yl)-N-methyl-4-oxo-4-(pyrrolidin-1-yl)butanamide] |  |  | 0 to 80 | 80 to 100
CN(C(=O)CCN1CCSC1=O)c1cn(-c2cccnc2)nc1Cl [Compound F38, N-(3-Chloro-1-(pyridin-3-yl)-1H-pyrazol-4-yl)-N-methyl-3-(2-oxothiazolidin-3-yl)propanamide] |  |  | 80 to 100 | 80 to 100
CCN(C(=O)CCN1CCCC1=O)c1cn(-c2cccnc2)nc1Cl [Compound F39, N-(3-Chloro-1-(pyridin-3-yl)-1H-pyrazol-4-yl)-N-ethyl-3-(2-oxopyrrolidin-1-yl)propanamide] |  |  | 80 to 100 | 80 to 100
CCSC(=O)N(C)CCC(=O)N(CC)c1cn(-c2cccnc2)nc1Cl [Compound F40, S-Ethyl (3-((3-chloro-1-(pyridin-3yl)-1H-pyrazol-4-yl)(ethyl)amino)-3-oxopropyl)(methyl) carbamothioate] |  |  | 0 to 80 | 0 to 80
